Biological target: T1, human mAChR M4 (Homo sapiens, UniProt P08173)
T1 sequence (P08173 1-479): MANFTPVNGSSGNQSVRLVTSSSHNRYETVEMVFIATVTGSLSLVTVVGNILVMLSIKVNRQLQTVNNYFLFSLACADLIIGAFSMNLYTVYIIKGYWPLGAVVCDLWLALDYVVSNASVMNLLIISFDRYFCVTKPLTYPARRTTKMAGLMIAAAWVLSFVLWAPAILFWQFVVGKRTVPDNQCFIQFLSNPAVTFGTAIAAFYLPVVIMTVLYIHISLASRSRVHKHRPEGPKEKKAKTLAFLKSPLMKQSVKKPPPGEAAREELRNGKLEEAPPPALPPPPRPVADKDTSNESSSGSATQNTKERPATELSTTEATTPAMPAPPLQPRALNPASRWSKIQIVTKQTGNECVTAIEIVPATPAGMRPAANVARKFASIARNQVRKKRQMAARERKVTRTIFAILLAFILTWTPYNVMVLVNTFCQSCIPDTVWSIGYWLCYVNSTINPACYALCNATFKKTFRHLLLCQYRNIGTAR
Assay: mAChR M4 cell-based functional assay (calcium flux), human M4
Conditions: Table 10; for EC50: Human M4 EC50 (nM), calcium flux, PAM activity with EC20 acetylcholine; for Emax: % ACh maximum at 30 μM

Row | EC50 [nM] | Emax [%] | SMILES
1 | 1210 | 97.6 | Cc1nnc2sc3c(NCc4ccc(F)c(C(=O)NCC(C)C)c4)ncnc3c2c1C [Compound 180, 5-[[(3,4-dimethylpyrimido [4′,5′:4,5]thieno[2,3-c]pyridazin-8-yl)amino]methyl]-2-fluoro-N-isobutyl-benzamide]
2 | 1160 | 96.5 | Cc1nnc2sc3c(NCc4ccc(F)c(C(=O)NC5CC5(C)C)c4)ncnc3c2c1C (stereo not shown) [Compound 181, N-(2,2-dimethylcyclopropyl)-5-[[(3,4-dimethylpyrimido [4′,5′:4,5]thieno[2,3-c]pyridazin-8-yl)amino]methyl]-2-fluoro-benzamide]
3 | 1170 | 97.2 | Cc1nnc2sc3c(NCc4ccc(F)c(C(=O)N[C@H](C)C(F)(F)F)c4)ncnc3c2c1C [Compound 182, 5-[[(3,4-dimethylpyrimido [4′,5′:4,5]thieno[2,3-c]pyridazin-8-yl)amino]methyl]-2-fluoro-N-[(1R)-2,2,2-trifluoro-1-methyl-ethyl]benzamide]
4 | 505 | 99.7 | Cc1nnc2sc3c(NCc4ccc(F)c(C(=O)NC5CC(F)C5)c4)ncnc3c2c1C (stereo not shown) [Compound 183, 5-[[(3,4-dimethylpyrimido [4′,5′:4,5]thieno[2,3-c]pyridazin-8-yl)amino]methyl]-2-fluoro-N-(3-fluorocyclobutyl) benzamide]
5 | 340 | 107 | Cc1nnc2sc3c(NCc4ccc(F)c(C(=O)NC5CC(F)(F)C5)c4)ncnc3c2c1C [Compound 184, N-(3,3-difluorocyclobutyl)-5-[[(3,4-dimethylpyrimido [4′,5′:4,5]thieno[2,3-c]pyridazin-8-yl)amino]methyl]-2-fluoro-benzamide]
6 | 794 | 94.2 | Cc1nnc2sc3c(NCc4ccc(F)c(C(=O)NC(C)C(C)(C)CO)c4)ncnc3c2c1C (stereo not shown) [Compound 185, 5-[[(3,4-dimethylpyrimido [4′,5′:4,5]thieno[2,3-c]pyridazin-8-yl)amino]methyl]-2-fluoro-N-(3-hydroxy-1,2,2-trimethyl-propyl)benzamide]
7 | 687 | 86.8 | COCCNC(=O)c1cc(CNc2ncnc3c2sc2nnc(C)c(C)c23)ccc1F [Compound 186, 5-[[(3,4-dimethylpyrimido [4′,5′:4,5]thieno[2,3-c]pyridazin-8-yl)amino]methyl]-2-fluoro-N-(2-methoxyethyl)benzamide]
8 | 154 | 87.6 | CNC(=O)c1cc(CNc2ncnc3c2sc2nnc(C)c(C)c23)ccc1F [Compound 187, 5-[[(3,4-dimethylpyrimido [4′,5′:4,5]thieno[2,3-c]pyridazin-8-yl)amino]methyl]-2-fluoro-N-methyl-benzamide]
9 | 775 | 79.8 | Cc1nnc2sc3c(NCc4ccc(C(C)(C)O)c(Cl)c4)ncnc3c2c1C [Compound 188, 2-[2-chloro-4-[[(3,4-dimethylpyrimido [4′,5′:4,5]thieno[2,3-c]pyridazin-8-yl)amino]methyl]phenyl]propan-2-ol]
10 | 831 | 94.3 | Cc1nnc2sc3c(NCc4ccc(C(C)(C)O)cc4Cl)ncnc3c2c1C [Compound 189, 2-[3-chloro-4-[[(3,4-dimethylpyrimido [4′,5′:4,5]thieno[2,3-c]pyridazin-8-yl)amino]methyl]phenyl]propan-2-ol]
11 | 3210 | 90.8 | Cc1nnc2sc3c(NCc4ccc(-c5cccs5)cc4)ncnc3c2c1C [Compound 190, 3,4-dimethyl-N-[[4-(2-thienyl)phenyl]methyl] pyrimido[4′,5′:4,5]thieno [2,3-c]pyridazin-8-amine]
12 | 837 | 56.9 | Cc1nnc2sc3c(NCc4ccc(-c5ccc[nH]5)cc4)ncnc3c2c1C [Compound 191, 3,4-dimethyl-N-[[4-(1H-pyrrol-2-yl)phenyl]methyl]pyrimido[4′,5′:4,5] thieno[2,3-c]pyridazin-8-amine]
13 | 851 | 85.9 | Cc1nnc2sc3c(NCc4ccc(-c5ccn(C)n5)cc4)ncnc3c2c1C [Compound 192, 3,4-dimethyl-N-[[4-(1-methylpyrazol-3-yl)phenyl]methyl]pyrimido [4′,5′:4,5]thieno[2,3-c] pyridazin-8-amine]
14 | 439 | 82 | Cc1nnc2sc3c(NCc4ccc(-c5ccnn5C)cc4)ncnc3c2c1C [Compound 193, 3,4-dimethyl-N-[[4-(2-methylpyrazol-3-yl)phenyl]methyl]pyrimido [4′,5′:4,5]thieno[2,3-c] pyridazin-8-amine]
15 | 762 | 88.7 | COCC1CN(c2ncnc3c2sc2nc(C)cc(C)c23)C1 [Compound 194, 4-[3-(methoxymethyl)azetidin-1-yl]-7.9-dimethyl-pyrido [3′,2′:4,5]thieno[3,2-d] pyrimidine]
16 |  | 76.3 | Cc1cc(C)c2c(n1)sc1c(N3CC4(COC4)C3)ncnc12 [Compound 195, 6-(7,9-dimethylpyrido [3′,2′:4,5]thieno[3,2-d]pyrimidin-4-yl)-2-oxa-6-azaspiro[3.3]heptane]
17 | 453 | 74.5 | Cc1cc(C)c2c(n1)sc1c(N3CC4CC4C3)ncnc12 (stereo not shown) [Compound 196, 4-(3-azabicyclo [3.1.0]hexan-3-yl)-7,9-dimethyl-pyrido [3′,2′:4,5]thieno[3,2-d] pyrimidine]
18 | 172 | 58.7 | Cc1cc(C)c2c(n1)sc1c(N3CCC3)ncnc12 [Compound 197, 4-(azetidin-1-yl)-7,9-dimethyl-pyrido [3′,2′:4,5]thieno[3,2-d] pyrimidine]
19 | 456 | 68.7 | Cc1cc(C)c2c(n1)sc1c(N3CC(F)(F)C3)ncnc12 [Compound 198, 4-(3,3-difluoroazetidin-1-yl)-7,9-dimethyl-pyrido[3′,2′:4,5] thieno[3,2-d]pyrimidine]
20 | 277 | 67.3 | Cc1cc(C)c2c(n1)sc1c(N3CCCC3)ncnc12 [Compound 199, 7,9-dimethyl-4-pyrrolidin-1-yl-pyrido[3′,2′:4,5] thieno[3,2-d]pyrimidine]
21 | 359 | 75.5 | Cc1cc(C)c2c(n1)sc1c(NC3CCC3)ncnc12 [Compound 200, N-cyclobutyl-7,9-dimethyl-pyrido [3′,2′:4,5]thieno[3,2-d] pyrimidin-4-amine]
22 | 341 | 66.5 | Cc1cc(C)c2c(n1)sc1c(N3CC(c4ccncc4)C3)ncnc12 [Compound 201, 7,9-dimethyl-4-[3-(4-pyridyl)azetidin-1-yl] pyrido[3′,2′:4,5]thieno [3,2-d]pyrimidine]
23 | 1640 | 61.1 | COc1ccc(C2CC2Nc2ncnc3c2sc2nc(C)cc(C)c23)cc1 (stereo not shown) [Compound 202, N-[2-(4-methoxyphenyl)cyclopropyl]-7,9-dimethyl-pyrido [3′,2′:4,5]thieno[3,2-d] pyrimidin-4-amine]
24 | 4010 | 44.5 | Cc1cc(C)c2c(n1)sc1c(NCc3ccc(OC(F)F)nc3)ncnc12 [Compound 203, N-[[6-(difluoromethoxy)-3-pyridyl]methyl]-7.9-dimethyl-pyrido[3′,2′:4,5] thieno[3,2-d]pyrimidin-4-amine]
25 | 294 | 34.5 | Cc1cc(C)c2c(n1)sc1c(NCc3ccc(S(C)(=O)=O)cc3)ncnc12 [Compound 204, 7,9-dimethyl-N-[(4-methylsulfonylphenyl)methyl]pyrido [3′,2′:4,5]thieno[3,2-d] pyrimidin-4-amine]

Source: patent publication US10239887B2, “Positive allosteric modulators of the muscarinic acetylcholine receptor M4” (Vanderbilt University, priority 2016, dated 2019)
